Source: US5760016A, “Use of mono-3,6-anhydrocyclodextrins for solubilizing a hydrophobic compound and for controlling the purity of an enantiomer and process for the preparation of these cyclodextrins” (priority 1993, dated 1998)
In brackets after ≈: the same amount, converted by molar mass. Values belong to the compound of their own block, whether it stands above or below them.

Tests used:
[1] = background; cited from earlier work
human erythrocytes = assay: Hemolysis of human erythrocytes by the cyclodextrin derivative; type: cell-based; settings: 50 mmole/l
[2] = as above; type: cell-based; settings: erythrocytes; 5 mmole/l, 0.4 ml of human erythrocyte suspension, pH 7.4, 30 min, 37° C.; read-out: hemolysis percentage
physchem = settings: water
[3] = Solubility in water of cyclodextrins
[4] = 25° C., without cyclodextrin; cited from earlier work
[5] = Solubility of prednisolone in water, alone or in the presence of a cyclodextrin; type: physicochemical
Procedure: 10 μmole of mono-3,6-anhydrocyclomaltoheptaose prepared in example 1 are dissolved in 1 ml of pure water (apyrogenic water for injections) and addition takes place of 5 μmole of prednisolone in the form of a 50 mmole/l concentrated solution in acetone. The acetone is eliminated under nitrogen bubbling and the solution lyophilized.
The residual solid, which contains 10 μmole of the cyclodextrin derivative and 5 μmole of prednisolone, is redissolved in the minimum of water at 25° C.

Structure (SMILES): COC[C@H]1O[C@@H]2O[C@H]3[C@H](O)[C@@H](OC)[C@@H](O[C@H]4[C@H](O)[C@@H](OC)[C@@H](O[C@H]5[C@H](O)[C@@H](OC)[C@@H](O[C@H]6[C@H](O)[C@@H](OC)[C@@H](O[C@H]7[C@H](O)[C@@H](OC)[C@@H](O[C@H]8[C@H](O)[C@@H](OC)[C@@H](O[C@H]1[C@H](O)[C@H]2OC)O[C@@H]8COC)O[C@@H]7COC)O[C@@H]6COC)O[C@@H]5COC)O[C@@H]4COC)O[C@@H]3COC [2,6-dimethyl-β-cyclodextrin]
- solubilizing properties for hydrophobic organic compounds [1]: good properties of solubilizing hydrophobic, organic compounds

- solubility (physchem): 520 mg/mL (≈ 466 mM)
- solubility in water relative to .chi. and γ-cyclodextrins ([3]; ratio to .chi. and γ-cyclodextrins): at least twice
- solubility in water relative to the original cyclodextrin ([3]; ratio to original cyclodextrin (18 g/l), 25° C.): ~30 times
Structure (SMILES): OC[C@H]1O[C@@H]2O[C@H]3[C@H](O)[C@@H](O)[C@@H](O[C@H]4[C@H](O)[C@@H](O)[C@@H](O[C@H]5[C@@H]6OC[C@H]5O[C@H](O[C@H]5[C@H](O)[C@@H](O)[C@@H](O[C@H]7[C@H](O)[C@@H](O)[C@@H](O[C@H]8[C@H](O)[C@@H](O)[C@@H](O[C@H]1[C@H](O)[C@H]2O)O[C@@H]8CO)O[C@@H]7CO)O[C@@H]5CO)[C@@H]6O)O[C@@H]4CO)O[C@@H]3CO [mono-3,6-anhydrocyclomaltoheptaose]
- hemolytic properties at much higher concentrations (human erythrocytes): no hemolysis detectable
- hemolysis at 0.5 h, 5000 µM [2]: 0%

Structure (SMILES): C[C@]12C=CC(=O)C=C1CC[C@@H]1[C@@H]2[C@@H](O)C[C@@]2(C)[C@H]1CC[C@]2(O)C(=O)CO [prednisolone]
- solubility in water of prednisolone [4]: 0.25 mg/mL
- solubility ([5]; 25° C., in the presence of mono-3,6-anhydrocyclomaltoheptaose at 200 mmole/l, read-out: maximum prednisolone solubility in water): 100 mM
- solubility ([5]; prednisolone solubility in the presence of β-cyclodextrin, same conditions, with β-cyclodextrin): 9 mM

Structure (SMILES): OC[C@H]1O[C@@H]2O[C@H]3[C@H](O)[C@@H](O)[C@@H](O[C@H]4[C@H](O)[C@@H](O)[C@@H](O[C@H]5[C@H](O)[C@@H](O)[C@@H](O[C@H]6[C@H](O)[C@@H](O)[C@@H](O[C@H]7[C@H](O)[C@@H](O)[C@@H](O[C@H]8[C@H](O)[C@@H](O)[C@@H](O[C@H]1[C@H](O)[C@H]2O)O[C@@H]8CO)O[C@@H]7CO)O[C@@H]6CO)O[C@@H]5CO)O[C@@H]4CO)O[C@@H]3CO [β-cyclodextrin, cyclomaltoheptaose]
- hemolysis at 0.5 h, 5000 µM [2]: 50%
